According to patent publication US20140350119A1, “OPHTHALMIC COMPOSITION COMPRISING GERANYLGERANYLACETONE” (ROHTO PHARMACEUTICAL CO., LTD., priority 2012, published 2014):

Experiments:
PC12 = test: Protective effect against ischemic cell death induced by hypoxia and low glucose (cell viability, Cell Titer-Glo); type: cell-based, rat; details: 30 μM, 2 h, then low glucose, zero percent O2, 8 h, FIG. 1, Tukey-Kramer test
Source text: The progress of visual impairment in glaucoma is associated with retinal ganglion cell (RGC) death due to blood flow failure occurring near the optic nerve (Folia Pharmacol. Jpn. 128, 255-258 (2006)). With the use of PC12, which is a typical neural cell line established from rat adrenal […] pheochromocytoma and used also as a model cell for the functional evaluation of RGC (J Neurosci Res. 2000 May 15; 60(4): 495-503.), the cytoprotective effect of GGA against ischemic cell death induced by hypoxia and low glucose was evaluated.
Test samples were prepared as follows. The test substances were four types of GGAs that contain the all-trans form and the 5Z-mono-cis form at a weight ratio of 10:0, 8:2, 6:4, and 0:10, respectively. […]
After 8 hours of incubation, 100 μL of an equivalent mixture of a cell viability detection reagent Cell Titer-Glo (Promega) and PBS was added to each well and the luminescence produced by the reaction with ATP in living cells was measured with a luminometer (GloMax; Promega). The cell viability was calculated from the measured luminescence by the following formula and the cytoprotective effect of GGA against […] was examined.
Cell viability (%)=100×[(luminescence of base- or GGA-treated group)/(luminescence of non-treated group)]

[1] = test system: IL-8 production by TNF-α in ARPE-19; test: Inhibitory effect on IL-8 production by TNF-α from retinal pigment epithelial cells; type: cell-based, human; details: all-trans form content 50 μM, 16 hours, TNF-α 4 hours, FIG. 5, n=3
Source text: Age-related macular degeneration is known to involve the accumulation of drusen under the retinal pigment epithelium. Drusen attract macrophages and macrophages secrete TNF-α. TNF-α acts on the retinal pigment epithelium and its peripheral tissue, and the cells subsequently produce a variety of cytokines and cause inflammation (Mol Vis. 2008 14: 2292-303). A typical cytokine that is involved in neutrophil migration and spreads inflammation is interleukin-8 (IL-8). In this experiment, the inhibitory effect of GGA on IL-8 production by TNF-α was examined using a human-derived retinal pigment epithelial cell line, ARPE-19. […]
After 4 hours of incubation, 150 μL of the cell culture supernatant was collected and stored at −80° C. […] Then, 100 μL of an equivalent mixture of a cell viability detection reagent Cell Titer-Glo and PBS was added to each well and the luminescence produced by the reaction with ATP in living cells was measured with a luminometer. From the measured luminescence, the cell viability was calculated by the following formula.
Cell viability (%)=100×[(luminescence of GGA-treated group)/(luminescence of base-treated group)]
The stored cell culture supernatant was allowed to warm to room temperature, and the IL-8 concentration was quantified with Human CXCL8/IL-8 Quantikine ELISA Kit (R&D Systems). […]

Structure (SMILES): CC(=O)CC/C=C(\C)CC/C=C(\C)CC/C=C(\C)CCC=C(C)C [all-trans form, (5E,9E,13E)-6,10,14,18-tetramethyl-5,9,13,17-nonadecatetrae n-2-one]
- Cytoprotective effect compared with GGA of weight ratio 6:4 (PC12): significantly higher cytoprotective effects
- Inhibitory effect on IL-8 production compared with GGA 6:4 [1]: significant inhibitory effect on IL-8 production
